Measurements: PMC9436075, “A structural basis for the functional differences between the cytosolic and plastid phosphoglucose isomerase isozymes” (PLoS ONE, 2022)

How the values were obtained:
[1] = target: T1, TaPGIp (Triticum aestivum, UniProt A0A3B6LNA8); assay: PGI activity inhibition, dose-response; type: biochemical; conditions: read-out: IC50E4P
T1 construct: gene LOC123112261; plastid PGI, CTD 467-557, transit peptide probably removed; homodimer
T1 sequence (A0A3B6LNA8 64-620): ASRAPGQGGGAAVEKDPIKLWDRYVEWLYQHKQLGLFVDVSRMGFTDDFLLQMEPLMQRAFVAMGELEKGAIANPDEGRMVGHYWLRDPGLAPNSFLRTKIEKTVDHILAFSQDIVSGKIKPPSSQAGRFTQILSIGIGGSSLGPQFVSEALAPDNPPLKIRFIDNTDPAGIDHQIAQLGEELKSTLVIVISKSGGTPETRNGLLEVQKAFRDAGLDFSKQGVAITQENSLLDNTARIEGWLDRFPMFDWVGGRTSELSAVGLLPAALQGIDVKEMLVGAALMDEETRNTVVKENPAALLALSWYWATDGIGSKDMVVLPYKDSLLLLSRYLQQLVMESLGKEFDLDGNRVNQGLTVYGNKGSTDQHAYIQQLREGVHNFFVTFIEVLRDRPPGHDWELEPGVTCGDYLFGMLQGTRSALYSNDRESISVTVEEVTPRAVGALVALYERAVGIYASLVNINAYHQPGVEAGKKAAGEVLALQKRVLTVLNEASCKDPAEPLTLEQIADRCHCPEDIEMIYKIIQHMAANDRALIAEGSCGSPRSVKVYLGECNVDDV

[2] = target: T2, TaPGIc (Triticum aestivum, UniProt Q1PBI3); assay: PGI activity inhibition, dose-response; type: biochemical; conditions: read-out: IC50E4P
T2 construct: gene GPI; cytosolic PGI, CTD 510-567, HLHM 444-466; homodimer
T2 sequence (Q1PBI3 1-567): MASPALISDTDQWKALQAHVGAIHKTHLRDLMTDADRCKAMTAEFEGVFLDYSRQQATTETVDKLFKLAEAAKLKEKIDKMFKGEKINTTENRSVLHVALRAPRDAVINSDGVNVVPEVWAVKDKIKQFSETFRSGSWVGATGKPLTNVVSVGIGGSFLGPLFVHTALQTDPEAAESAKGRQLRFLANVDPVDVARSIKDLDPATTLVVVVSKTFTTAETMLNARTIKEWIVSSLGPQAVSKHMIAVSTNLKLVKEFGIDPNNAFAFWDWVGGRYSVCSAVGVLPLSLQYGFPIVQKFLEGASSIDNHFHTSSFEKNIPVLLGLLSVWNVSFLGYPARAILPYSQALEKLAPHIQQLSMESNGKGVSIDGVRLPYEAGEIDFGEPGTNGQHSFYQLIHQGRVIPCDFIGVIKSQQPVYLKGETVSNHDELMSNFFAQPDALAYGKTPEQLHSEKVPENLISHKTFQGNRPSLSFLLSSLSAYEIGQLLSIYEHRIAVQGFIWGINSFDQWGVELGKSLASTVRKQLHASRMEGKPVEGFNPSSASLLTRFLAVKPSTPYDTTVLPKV

IC50 [1]: 760 µM
IC50 [2]: 130 µM
Compound: O=C[C@H](O)[C@H](O)COP(=O)(O)O [E4P, erythrose 4-phosphate]
